Data published in US20110112097A1, “Substituted imidazoline-2,4-diones, process for preparation thereof, medicaments comprising these compounds and use thereof” (SANOFI-AVENTIS, priority 2008, published 2011).
Counter-ions that a name gives are not always drawn. Like-named read-outs stand apart in the source and are kept apart here.

Legend:
hCB1R [1] = molecular target: T1, hCB1R (Homo sapiens, UniProt P21554); assay: Binding to the CB1 receptor ([3H]-SR141716A displacement)
Procedure: Binding to the CB1 Receptor:
Test compounds: The compounds (3 μl, 10 mM, 100% DMSO), pipetted into 96-well PP microtiter plates, were diluted with 27 μl of 100% DMSO (dimethyl sulfoxide). Proceeding from this solution, further 3-fold dilution steps were undertaken by transferring 10 μl in each case to a new PP microtiter plate and adding a further 20 μl of 100% DMSO. In each case 6 μl of these solutions were transferred into new 96-well PP microtiter plates and made up with 144 μl of assay buffer. The end concentrations ranged from 10 μM to 0.005 μM.
Negative control: AM 251, dissolved in assay buffer with 1% DMSO, was added to the dilution series in the microtiter plates as a control. The end concentration was 1 μM.
Blank control: assay buffer with 1% DMSO was added to the dilution series of the microtiter plates as a blank control.
Summary of the Assay Parameters:
High control: ^3H binding without addition of the compound Low control: ^3H binding in the presence of 1 μM AM 251
The values were calculated using the corrected raw data.
The values reported were obtained as average values of a double determination. The IC50 values were calculated from the measurements with the program Xlfit, formula 205. Ki values were obtained from the IC50 and Kd values utilizing the Cheng-Prusoff equation:
[formula] • Literature: Cheng, Y.-C., and Prusoff, W. H. (1973) Biochem. Pharmacol 22, 3099-3108

hCB2R = molecular target: T2, hCB2R (Homo sapiens, UniProt P34972); assay: In vitro functional assay with recombinant cells (FLIPR, intracellular Ca2+), CB2; type: cell-based; conditions: recombinant HEK293 cells expressing CB2 and G-protein Galpha16; 20 min preincubation, then reference agonist; Ca2+ change (Fluo-4)
T2 construct: expressed in transfected cells; host or cells: HEK293
T2 sequence (P34972 whole entry): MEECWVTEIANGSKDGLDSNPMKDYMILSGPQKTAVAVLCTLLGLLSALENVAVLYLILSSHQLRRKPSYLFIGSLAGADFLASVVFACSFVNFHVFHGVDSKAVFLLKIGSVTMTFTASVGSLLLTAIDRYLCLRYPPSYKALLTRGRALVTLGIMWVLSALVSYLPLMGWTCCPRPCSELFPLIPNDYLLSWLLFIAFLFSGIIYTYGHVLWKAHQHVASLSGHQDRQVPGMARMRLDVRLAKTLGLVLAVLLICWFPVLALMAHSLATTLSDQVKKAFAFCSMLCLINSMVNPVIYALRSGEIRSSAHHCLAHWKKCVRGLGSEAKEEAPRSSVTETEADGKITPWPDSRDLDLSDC
Procedure: (§1) In vitro functional assays with recombinant cells:
(§2) Function-testing assays were performed by means of the FLIPR technique (“Fluorometric Imaging Plate Reader”, Molecular Devices Corp.).
(§3) To this end, ligand-induced changes in the intracellular concentration of Ca^2+ in recombinant HEK293 cells, which expressed both a cannabinoid receptor (CB1 or CB2) and G-protein Galpha16, were determined. For the studies, cells were sown into 96-well microtiter plates (60 000 cells/well) and left to grow overnight. The medium was removed and the cells were incubated in buffer which contained the fluorescent dye Fluo-4. After this loading with dye, the cells were washed, test substance was added dissolved in buffer, the mixture was incubated for 20 minutes, a known cannabinoid receptor agonist as a reference agonist was added in buffer and, finally, the changes in the intracellular Ca^2+ concentration were measured in the FLIPR unit.
Results were presented as the percentage change relative to the control (0%: analogous experiment without test substance and without reference agonist, i.e. only with buffer; 100%: analogous experiment without test substance, but with reference agonist in excess), and used to calculate dose/action curves, and IC50 values were determined

hCB1R [2] = molecular target: T1, hCB1R; assay: In vitro functional assay with recombinant cells (FLIPR, intracellular Ca2+), CB1; type: cell-based; set-up: expressed in transfected cells; host or cells: HEK293
Procedure: as §1, §2, §3

[3] = CHO-K1/cannabinoid CB1 protein 2 μg/well, [3H]-SR141716A 0.5 nM, Ki from IC50 by Cheng-Prusoff, average of double determination, read-out: hCB1R, binding Ki
[4] = recombinant HEK293 cells expressing CB1 and G-protein Galpha16, 20 min preincubation, then reference agonist, Ca2+ change (Fluo-4), read-out: hCB1R: FLIPR, IC50

T1 sequence (P21554 whole entry): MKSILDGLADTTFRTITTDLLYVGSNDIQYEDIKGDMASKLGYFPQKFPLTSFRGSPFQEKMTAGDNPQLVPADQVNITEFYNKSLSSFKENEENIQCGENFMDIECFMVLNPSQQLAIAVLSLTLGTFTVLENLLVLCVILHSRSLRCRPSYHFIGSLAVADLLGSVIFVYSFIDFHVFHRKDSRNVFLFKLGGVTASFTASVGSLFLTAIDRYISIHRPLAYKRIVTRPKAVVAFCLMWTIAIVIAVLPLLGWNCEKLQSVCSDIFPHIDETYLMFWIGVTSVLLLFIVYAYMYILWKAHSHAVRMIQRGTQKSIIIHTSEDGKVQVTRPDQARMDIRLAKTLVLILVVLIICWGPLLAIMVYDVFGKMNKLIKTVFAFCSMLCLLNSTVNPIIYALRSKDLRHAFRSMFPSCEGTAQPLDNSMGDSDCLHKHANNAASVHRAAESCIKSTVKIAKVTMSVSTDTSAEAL

SMILES	Ki (hCB1R [1]; [3]) [nM]	other results
CCc1cccc(N2C(=O)N(Cc3ccccc3Cc3ccccc3)C(C)(C)C2=O)c1 [Example 1, 1-(2-Benzylbenzyl)-3-(3-ethylphenyl)-5,5-dimethylimidazolidine-2,4-dione]	218	–
CSc1cccc(N2C(=O)N(Cc3ccccc3Cc3ccccc3)C(C)(C)C2=O)c1 [Example 4]	217	–
CC1(C)C(=O)N(c2cccc(C(F)(F)F)c2)C(=O)N1Cc1ccccc1Cc1ccccc1 [Example 7]	95	–
CC1(C)C(=O)N(c2cc(C(F)(F)F)ccc2F)C(=O)N1Cc1ccccc1Cc1ccccc1 [Example 11]	132	–
CC1(C)C(=O)N(c2cccc(SC(F)(F)F)c2)C(=O)N1Cc1ccccc1Cc1ccccc1 [Example 13]	66	–
CC1(C)C(=O)N(c2cccc(C#N)c2)C(=O)N1Cc1ccccc1Cc1ccccc1 [Example 16]	174	–
CC1(C)C(=O)N(c2ccc(F)c(F)c2)C(=O)N1Cc1ccccc1Cc1ccccc1 [Example 41]	188	–
CC1(C)C(=O)N(c2ccc(Cl)c(Cl)c2)C(=O)N1Cc1ccccc1Cc1ccccc1 [Example 64]	97	–
CC1(C)C(=O)N(c2cc(Cl)cc(Cl)c2)C(=O)N1Cc1ccccc1Cc1ccccc1 [Example 65]	153	–
CC1(C)C(=O)N(c2ccc(F)c(C(F)(F)F)c2)C(=O)N1Cc1ccccc1Cc1ccccc1 [Example 79]	–	IC50 (hCB2R): > 10000 nM; Ki (hCB1R [1]): 44 nM; IC50 (hCB1R [2]; [4]): 103 nM
CC1(C)C(=O)N(c2ccc(C#N)c(C(F)(F)F)c2)C(=O)N1Cc1ccccc1Cc1ccccc1 [Example 88, 4-[3-(2-benzylbenzyl)-4,4-dimethyl-2,5-dioxoimidazolidin-1-yl]-2-trifluoromethylbenzonitrile]	–	IC50 (hCB2R): > 30000 nM; Ki (hCB1R [1]): 2 nM; IC50 (hCB1R [2]): 13 nM
CC1(C)C(=O)N(c2ccc(Oc3ccc(Cl)cc3)c(C(F)(F)F)c2)C(=O)N1Cc1ccccc1Cc1ccccc1 [Example 101, 1-(2-Benzylbenzyl)-3-[4-(4-chlorophenoxy)-3-trifluoromethylphenyl]-5,5-dimethylimidazolidine-2,4-dione]	99	–
CC1(C)C(=O)N(c2ccc(C#N)c(S(F)(F)(F)(F)F)c2)C(=O)N1Cc1ccccc1Cc1ccccc1 [Example 102, 4-[3-(2-Benzylbenzyl)-4,4-dimethyl-2,5-dioxo-imidazolidin-1-yl]-2-pentafluorosulfanyl-benzonitrile]	19	IC50 (hCB1R [2]): 45 nM
N#Cc1ccc(N2C(=O)N(Cc3ccccc3Cc3ccccc3)C3(CCCC3)C2=O)cc1C(F)(F)F [Example 106, 4-[1-(2-Benzylbenzyl)-2,4-dioxo-1,3-diazaspiro[4.4]-non-3-yl]-2-trifluoro-methylbenzonitrile]	–	IC50 (hCB2R): > 10000 nM; Ki (hCB1R [1]): 11 nM; IC50 (hCB1R [2]): 76 nM
N#Cc1ccc(N2C(=O)N(Cc3ccccc3Cc3ccccc3)C3(CCC3)C2=O)cc1C(F)(F)F [Example 107, 4-[5-(2-Benzylbenzyl)-6,8-dioxo-5,7-diazaspiro[3.4]-oct-7-yl]-2-trifluoro-methylbenzonitrile]	–	IC50 (hCB2R): > 10000 nM; Ki (hCB1R [1]): 12 nM; IC50 (hCB1R [2]): 43 nM
CN1CCC2(CC1)C(=O)N(c1ccc(C#N)c(C(F)(F)F)c1)C(=O)N2Cc1ccccc1Cc1ccccc1 [Example 111, 4-[1-(2-Benzylbenzyl)-8-methyl-2,4-dioxo-1,3,8-triazaspiro[4.5]dec-3-yl]-2-trifluoromethylbenzo-nitrile; trifluoroacetate]	61	–
N#Cc1ccc(N2C(=O)N(Cc3ccccc3Cc3ccccc3)C3(CCCCC3)C2=O)cc1C(F)(F)F [Example 114, 4-[1-(2-Benzylbenzyl)-2,4-dioxo-1,3-diazaspiro[4.5]dec-3-yl]-2-trifluoromethylbenzonitrile]	63	–
N#Cc1ccc(N2C(=O)N(Cc3ccccc3Cc3ccccc3)C3(CCCCCC3)C2=O)cc1C(F)(F)F [Example 116, 4-[1-(2-Benzylbenzyl)-2,4-dioxo-1,3-diazaspiro[4.6]undec-3-yl]-2-trifluoromethylbenzonitrile]	26	–
CC1(C)C(=O)N(c2ccnc(Cl)c2)C(=O)N1Cc1ccccc1Cc1ccccc1 [Example 117, 1-(2-Benzylbenzyl)-3-(2-chloropyridin-4-yl)-5,5-dimethylimidazolidine-2,4-dione]	94	–
CC(C)(C)c1cc(N2C(=O)N(Cc3ccccc3Cc3ccccc3)C(C)(C)C2=O)ccc1C#N [Example 118, 4-[3-(2-Benzylbenzyl)-4,4-dimethyl-2,5-dioxo-imidazolidin-1-yl]-2-tert-butylbenzonitrile]	–	IC50 (hCB2R): > 10000 nM; Ki (hCB1R [1]): 5 nM; IC50 (hCB1R [2]; [4]): 114 nM
CC1(C)C(=O)N(c2ccnc(C(F)(F)F)c2)C(=O)N1Cc1ccccc1Cc1ccccc1 [Example 119, 1-(2-Benzylbenzyl)-5,5-dimethyl-3-(2-trifluoromethylpyridin-4-yl)imidazolidine-2,4-dione; hydrochloride]	23	IC50 (hCB1R [2]): 97 nM
CC1(C)C(=O)N(c2ccc(C#N)nc2)C(=O)N1Cc1ccccc1Cc1ccccc1 [Example 123, 543-(2-Benzylbenzyl)-4,4-dimethyl-2,5-dioxo-imidazolidin-1-yl]pyridine-2-carbonitrile; hydrochloride]	140	–
CC1(C)C(=O)N(c2ccc(C#N)c(C(F)(F)F)c2)C(=O)N1Cc1ccc(C(=O)c2ccccc2)cc1 [Example 132, 4-[3-(4-benzoylbenzyl)-4,4-dimethyl-2,5-dioxo-imidazolidin-1-yl]-2-trifluoromethylbenzonitrile]	–	IC50 (hCB2R): > 10000 nM; Ki (hCB1R [1]): 74 nM; IC50 (hCB1R [2]; [4]): 103 nM
CC1(C)C(=O)N(c2ccc(C#N)c(C(F)(F)F)c2)C(=O)N1Cc1ccc(F)cc1C(=O)c1ccc(Cl)cc1 [Example 139, 4-{3-[2-(4-Chloro-benzoyl)-4-fluorobenzyl]-4,4-dimethyl-2,5-dioxo-imidazolidin-1-yl}-2-trifluoromethylbenzonitrile]	77	–
COC(=O)c1ccc(Cc2ccccc2CN2C(=O)N(c3ccc(C#N)c(C(F)(F)F)c3)C(=O)C2(C)C)cc1 [Example 143, methyl 4-{2-[3-(4-cyano-3-trifluoromethylphenyl)-5,5-dimethyl-2,4-dioxoimidazolidin-1-ylmethyl]benzyl}benzoate]	13	IC50 (hCB1R [2]): 65 nM
COC(=O)c1ccc(Cc2ccccc2CN2C(=O)N(c3ccc(F)c(C(F)(F)F)c3)C(=O)C2(C)C)cc1 [Example 144, methyl 4-{2-[3-(4-fluoro-3-trifluoromethylphenyl)-5,5-dimethyl-2,4-dioxoimidazolidin-1-ylmethyl]benzyl}benzoate]	37	–
CC1(C)C(=O)N(c2ccc(C#N)c(C(F)(F)F)c2)C(=O)N1Cc1ccc(F)cc1C(=O)c1ccc(C#N)cc1 [Example 150, 4-{3-[2-(4-Cyano-benzoyl)-4-fluorobenzyl]-4,4-dimethyl-2,5-dioxo-imidazolidin-1-yl}-2-tri-fluoromethylbenzonitrile]	18	IC50 (hCB1R [2]): 11 nM
COC(=O)c1ccc(C(=O)c2ccc(CN3C(=O)N(c4ccc(F)c(C(F)(F)F)c4)C(=O)C3(C)C)cc2)cc1 [Example 151, Methyl 4-{4-[3-(4-fluoro-3-trifluoromethylphenyl)-5,5-dimethyl-2,4-dioxo-imidazolidin-1-ylmethyl]-benzoyl}benzoate]	62	–
CC1(C)C(=O)N(c2ccc(C#N)c(C(F)(F)F)c2)C(=O)N1Cc1ccc(F)cc1C(=O)c1ccc(C(F)(F)F)cc1 [Example 155, 4-{3-[4-Fluoro-2-(4-trifluoromethylbenzoyl)-benzyl]-4,4-dimethyl-2,5-dioxoimidazolidin-1-yl}-2-trifluoromethylbenzonitrile]	69	–
